Data on nine compounds can be found in patent publication US20240116998A1, “GLUCAGON-LIKE PEPTIDE-1 RECEPTOR ANTAGONISTS” (INDIANA UNIVERSITY RESEARCH AND TECHNOLOGY CORPORATION, priority 2021, published 2024).

Structures are written as SMILES. Values after ≈ are worked out from the molar mass of the structure shown. Non-standard residues stand in square brackets, D forms with d. Residues, ends and D or L forms follow the SMILES beside them. *: point of attachment. Palmitoyl = CCCCCCCCCCCCCCCC(=O)*; Aib = CC(C)(N)C(=O)O

The nature of one series: Solubility of peptides in buffer. The settings on record: Table 3; 80 mM AmBicarb pH 7.7; unit not given. Format: physicochemical.
Consider `CCCCCCCCCCCCCCCC(=O)NCCCC[C@H](NC(=O)[C@H](CO)NC(=O)[C@@H]1CCCN1C(=O)[C@@H]1CCCN1C(=O)[C@@H]1CCCN1C(=O)[C@H](C)NC(=O)CNC(=O)[C@H](CO)NC(=O)[C@H](CO)NC(=O)[C@@H]1CCCN1C(=O)CNC(=O)CNC(=O)[C@H](CCCNC(=N)N)NC(=O)[C@@H](NC(=O)[C@H](CC(C)C)NC(=O)[C@H](Cc1c[nH]c2ccccc12)NC(=O)[C@H](CCC(=O)O)NC(=O)[C@@H](NC(=O)[C@H](Cc1ccccc1)NC(=O)[C@H](CCC(=O)O)NC(=O)[C@H](CCCNC(=N)N)NC(=O)[C@@H](NC(=O)[C@H](C)NC(=O)[C@H](CCC(=O)O)NC(=O)[C@H](CCC(=O)O)NC(=O)[C@H](CCC(=O)O)NC(=O)[C@H](CC(C)C)NC(=O)[C@H](Cc1ccc(O)cc1)NC(=O)[C@H](CO)NC(=O)[C@H](CO)NC(=O)[C@@H](NC(=O)[C@@H](N)CC(=O)O)C(C)C)C(C)C)[C@@H](C)CC)C(C)C)C(N)=O` [SEQ ID NO: 72] (H-DVSSYLEEEAVREFIEWLVRGGPSSGAPPPSK(Palmitoyl)-NH2; N-terminus assumed), for which the “Solubility 80 mM AmBicarb pH 7.7” value is given as over 20.
For `CCCCCCCCCCCCCCCC(=O)NCCCC[C@H](NC(=O)[C@H](CO)NC(=O)[C@@H]1CCCN1C(=O)[C@@H]1CCCN1C(=O)[C@@H]1CCCN1C(=O)[C@H](C)NC(=O)CNC(=O)[C@H](CO)NC(=O)[C@H](CO)NC(=O)[C@@H]1CCCN1C(=O)CNC(=O)CNC(=O)[C@H](CCCNC(=N)N)NC(=O)[C@@H](NC(=O)[C@H](CC(C)C)NC(=O)[C@H](Cc1c[nH]c2ccccc12)NC(=O)[C@H](CCC(=O)O)NC(=O)[C@@H](NC(=O)[C@H](Cc1ccccc1)NC(=O)[C@H](CCC(=O)O)NC(=O)[C@H](CCCNC(=N)N)NC(=O)[C@@H](NC(=O)[C@H](C)NC(=O)[C@H](CCC(=O)O)NC(=O)[C@H](CCC(=O)O)NC(=O)[C@H](CCC(=O)O)NC(=O)[C@H](CC(C)C)NC(=O)[C@H](Cc1ccc(O)cc1)NC(=O)[C@H](CCCNC(=N)N)NC(=O)[C@H](CO)NC(=O)[C@@H](NC(=O)[C@@H](N)CC(=O)O)C(C)C)C(C)C)[C@@H](C)CC)C(C)C)C(N)=O` [SEQ ID NO: 75] (H-DVSRYLEEEAVREFIEWLVRGGPSSGAPPPSK(Palmitoyl)-NH2), the “Solubility 80 mM AmBicarb pH 7.7” value turned out to be 18.5.
For `CCCCCCCCCCCCCCCC(=O)NCCCC[C@H](NC(=O)[C@H](CO)NC(=O)[C@@H]1CCCN1C(=O)[C@@H]1CCCN1C(=O)[C@@H]1CCCN1C(=O)[C@H](C)NC(=O)CNC(=O)[C@H](CO)NC(=O)[C@H](CO)NC(=O)[C@@H]1CCCN1C(=O)CNC(=O)CNC(=O)[C@H](CCCNC(=N)N)NC(=O)[C@@H](NC(=O)[C@H](CC(C)C)NC(=O)[C@H](Cc1c[nH]c2ccccc12)NC(=O)[C@H](C)NC(=O)[C@@H](NC(=O)[C@H](Cc1ccccc1)NC(=O)[C@H](CCC(=O)O)NC(=O)[C@H](CCCNC(=N)N)NC(=O)[C@@H](NC(=O)[C@H](C)NC(=O)[C@H](CCC(=O)O)NC(=O)[C@H](CCC(=O)O)NC(=O)[C@H](CCC(=O)O)NC(=O)[C@H](CC(C)C)NC(=O)[C@H](Cc1ccc(O)cc1)NC(=O)[C@H](CO)NC(=O)[C@H](CO)NC(=O)[C@@H](NC(=O)[C@@H](N)CC(=O)O)C(C)C)C(C)C)[C@@H](C)CC)C(C)C)C(N)=O` [SEQ ID NO: 71] (H-DVSSYLEEEAVREFIAWLVRGGPSSGAPPPSK(Palmitoyl)-NH2; N-terminus assumed), the “Solubility 80 mM AmBicarb pH 7.7” value is listed as over 20.

The series is the same for the next values; noted with them: pH 7.4.
Take `CCCCCCCCCCCCCCCC(=O)NCCCC[C@H](NC(=O)[C@H](CO)NC(=O)[C@@H]1CCCN1C(=O)[C@@H]1CCCN1C(=O)[C@@H]1CCCN1C(=O)[C@H](C)NC(=O)CNC(=O)[C@H](CO)NC(=O)[C@H](CO)NC(=O)[C@@H]1CCCN1C(=O)CNC(=O)CNC(=O)[C@H](CCCCN)NC(=O)[C@@H](NC(=O)[C@H](CC(C)C)NC(=O)[C@H](Cc1c[nH]c2ccccc12)NC(=O)[C@H](C)NC(=O)[C@@H](NC(=O)[C@H](Cc1ccccc1)NC(=O)[C@H](CCC(=O)O)NC(=O)[C@H](CCCNC(=N)N)NC(=O)C(C)(C)NC(=O)[C@H](C)NC(=O)[C@H](CCC(N)=O)NC(=O)[C@H](CCC(=O)O)NC(=O)[C@H](CCC(=O)O)NC(=O)[C@H](CC(C)C)NC(=O)[C@H](Cc1ccc(O)cc1)NC(=O)[C@H](CO)NC(=O)[C@H](CO)NC(=O)[C@@H](NC(=O)[C@@H](N)CC(=O)O)C(C)C)[C@@H](C)CC)C(C)C)C(N)=O` [SEQ ID NO: 45] (H-DVSSYLEEQA[Aib]REFIAWLVKGGPSSGAPPPSK(Palmitoyl)-NH2; N-terminus assumed): the solubility is 0.4 mg/mL (≈ 110 µM).
In turn, `CCCCCCCCCCCCCCCC(=O)NCCCC[C@H](NC(=O)[C@H](CO)NC(=O)[C@@H]1CCCN1C(=O)[C@@H]1CCCN1C(=O)[C@@H]1CCCN1C(=O)[C@H](C)NC(=O)CNC(=O)[C@H](CO)NC(=O)[C@H](CO)NC(=O)[C@@H]1CCCN1C(=O)CNC(=O)CNC(=O)[C@H](CCCCN)NC(=O)[C@@H](NC(=O)[C@H](CC(C)C)NC(=O)[C@H](Cc1c[nH]c2ccccc12)NC(=O)C(C)(C)NC(=O)[C@@H](NC(=O)[C@H](Cc1ccccc1)NC(=O)[C@H](CCC(=O)O)NC(=O)[C@H](CCCNC(=N)N)NC(=O)[C@@H](NC(=O)[C@H](C)NC(=O)[C@H](CCC(N)=O)NC(=O)[C@H](CCC(=O)O)NC(=O)[C@H](CCC(=O)O)NC(=O)[C@H](CC(C)C)NC(=O)[C@H](Cc1ccc(O)cc1)NC(=O)[C@H](CO)NC(=O)[C@H](CO)NC(=O)[C@@H](NC(=O)[C@@H](N)CC(=O)O)C(C)C)C(C)C)[C@@H](C)CC)C(C)C)C(N)=O` [SEQ ID NO: 83] (H-DVSSYLEEQAVREFI[Aib]WLVKGGPSSGAPPPSK(Palmitoyl)-NH2; N-terminus assumed) returned a solubility of 0.3 mg/mL (≈ 82.1 µM).
Same read-out and setting: then `CCCCCCCCCCCCCCCC(=O)NCCCC[C@H](NC(=O)[C@H](CO)NC(=O)[C@@H]1CCCN1C(=O)[C@@H]1CCCN1C(=O)[C@@H]1CCCN1C(=O)[C@H](C)NC(=O)CNC(=O)[C@H](CO)NC(=O)[C@H](CO)NC(=O)[C@@H]1CCCN1C(=O)CNC(=O)CNC(=O)C(C)(C)NC(=O)[C@H](CCCCN)NC(=O)[C@H](CC(C)C)NC(=O)[C@H](Cc1c[nH]c2ccccc12)NC(=O)[C@H](C)NC(=O)[C@@H](NC(=O)[C@H](Cc1ccccc1)NC(=O)[C@H](CCC(=O)O)NC(=O)[C@H](CCCNC(=N)N)NC(=O)[C@@H](NC(=O)[C@H](C)NC(=O)[C@H](CCC(N)=O)NC(=O)[C@H](CCC(=O)O)NC(=O)[C@H](CCC(=O)O)NC(=O)[C@H](CC(C)C)NC(=O)[C@H](Cc1ccc(O)cc1)NC(=O)[C@H](CO)NC(=O)[C@H](CO)NC(=O)[C@@H](NC(=O)[C@@H](N)CC(=O)O)C(C)C)C(C)C)[C@@H](C)CC)C(N)=O` [SEQ ID NO: 43], with 0.2 mg/mL (≈ 55.2 µM); and `CCCCCCCCCCCCCCCC(=O)NCCCC[C@H](NC(=O)[C@H](CO)NC(=O)[C@@H]1CCCN1C(=O)[C@@H]1CCCN1C(=O)[C@@H]1CCCN1C(=O)[C@H](C)NC(=O)CNC(=O)[C@H](CO)NC(=O)[C@H](CO)NC(=O)[C@@H]1CCCN1C(=O)CNC(=O)CNC(=O)[C@H](CCCCN)NC(=O)C(C)(C)NC(=O)[C@H](CC(C)C)NC(=O)[C@H](Cc1c[nH]c2ccccc12)NC(=O)[C@H](C)NC(=O)[C@@H](NC(=O)[C@H](Cc1ccccc1)NC(=O)[C@H](CCC(=O)O)NC(=O)[C@H](CCCNC(=N)N)NC(=O)[C@@H](NC(=O)[C@H](C)NC(=O)[C@H](CCC(N)=O)NC(=O)[C@H](CCC(=O)O)NC(=O)[C@H](CCC(=O)O)NC(=O)[C@H](CC(C)C)NC(=O)[C@H](Cc1ccc(O)cc1)NC(=O)[C@H](CO)NC(=O)[C@H](CO)NC(=O)[C@@H](NC(=O)[C@@H](N)CC(=O)O)C(C)C)C(C)C)[C@@H](C)CC)C(N)=O` [SEQ ID NO: 81] (H-DVSSYLEEQAVREFIAWL[Aib]KGGPSSGAPPPSK(Palmitoyl)-NH2; N-terminus assumed), with 1.6 mg/mL (≈ 441 µM).
Consider `CCCCCCCCCCCCCCCC(=O)NCCCC[C@H](NC(=O)[C@H](CO)NC(=O)[C@@H]1CCCN1C(=O)[C@@H]1CCCN1C(=O)[C@@H]1CCCN1C(=O)[C@H](C)NC(=O)CNC(=O)[C@H](CO)NC(=O)[C@H](CO)NC(=O)[C@@H]1CCCN1C(=O)CNC(=O)CNC(=O)[C@H](CCCCN)NC(=O)[C@@H](NC(=O)[C@H](CC(C)C)NC(=O)[C@H](Cc1c[nH]c2ccccc12)NC(=O)[C@H](C)NC(=O)[C@@H](NC(=O)[C@H](Cc1ccccc1)NC(=O)[C@H](CCC(=O)O)NC(=O)[C@H](CCCNC(=N)N)NC(=O)[C@@H](NC(=O)C(C)(C)NC(=O)[C@H](CCC(N)=O)NC(=O)[C@H](CCC(=O)O)NC(=O)[C@H](CCC(=O)O)NC(=O)[C@H](CC(C)C)NC(=O)[C@H](Cc1ccc(O)cc1)NC(=O)[C@H](CO)NC(=O)[C@H](CO)NC(=O)[C@@H](NC(=O)[C@@H](N)CC(=O)O)C(C)C)C(C)C)[C@@H](C)CC)C(C)C)C(N)=O` [SEQ ID NO: 46] (H-DVSSYLEEQ[Aib]VREFIAWLVKGGPSSGAPPPSK(Palmitoyl)-NH2; N-terminus assumed), for which the concentration in solution (solubility) came to 0.7 mg/mL (≈ 192 µM).
As to `CCCCCCCCCCCCCCCC(=O)NCCCC[C@H](NC(=O)[C@H](CO)NC(=O)[C@@H]1CCCN1C(=O)[C@@H]1CCCN1C(=O)[C@@H]1CCCN1C(=O)[C@H](C)NC(=O)CNC(=O)[C@H](CO)NC(=O)[C@H](CO)NC(=O)[C@@H]1CCCN1C(=O)CNC(=O)CNC(=O)[C@H](CCCCN)NC(=O)[C@@H](NC(=O)[C@H](CC(C)C)NC(=O)[C@H](Cc1c[nH]c2ccccc12)NC(=O)[C@H](C)NC(=O)[C@@H](NC(=O)[C@H](Cc1ccccc1)NC(=O)[C@H](CCC(=O)O)NC(=O)[C@H](CCCNC(=N)N)NC(=O)[C@@H](NC(=O)[C@H](C)NC(=O)[C@H](CCC(N)=O)NC(=O)C(C)(C)NC(=O)[C@H](CCC(=O)O)NC(=O)[C@H](CC(C)C)NC(=O)[C@H](Cc1ccc(O)cc1)NC(=O)[C@H](CO)NC(=O)[C@H](CO)NC(=O)[C@@H](NC(=O)[C@@H](N)CC(=O)O)C(C)C)C(C)C)[C@@H](C)CC)C(C)C)C(N)=O` [SEQ ID NO: 84] (H-DVSSYLE[Aib]QAVREFIAWLVKGGPSSGAPPPSK(Palmitoyl)-NH2; N-terminus assumed), the solubility is 0.2 mg/mL (≈ 55.6 µM).

One may read the solubility as the concentration that dissolves in the medium under given conditions. High values mean much dissolved substance, low ones little dissolved substance.
